Experimental data from US9090576B2, “2-substituted-p-quinone derivatives for treatment of oxidative stress diseases” (Edison Pharmaceuticals, Inc., priority 2008, dated 2015).
pEC50: −log10 of the molar value.

Tests used:
Assay type in all cases: cell-based
[1] = tested on: human dermal fibroblasts from LHON patients; test: Rescue of BSO-stressed fibroblasts from LHON patients (screen as Example A); conditions: Fibroblast, BSO-stressed LHON fibroblasts (GM03858), less than about 150 nM, read-out: EC50, protection against LHON
Protocol: (§1) A culture with FRDA fibroblasts was started from a 1 ml vial with approximately 500,000 cells stored in liquid nitrogen. Cells were propagated in 10 cm cell culture dishes by splitting every third day in a ratio of 1:3 until nine plates were available. Once confluent, fibroblasts were harvested. For 54 micro titer plates (96 well-MTP) a total of 14.3 million cells (passage eight) were re-suspended in 480 ml medium, corresponding to 100 μl medium with 3,000 cells/well. The remaining cells were distributed in 10 cm cell culture plates (500,000 cells/plate) for propagation. The plates were incubated overnight at 37° C. in an atmosphere with 95% humidity and 5% CO2 to allow attachment of the cells to the culture plate.
(§2) MTP medium (243 μl) was added to a well of the microtiter plate. The test compounds were unfrozen, and 7.5 μl of a 5 mM stock solution was dissolved in the well containing 243 μl medium, resulting in a 150 μM master solution. Serial dilutions from the master solution were made. The period between the single dilution steps was kept as short as possible (generally less than 1 second).
(§3) Plates were kept overnight in the cell culture incubator. The next day, 10 μl of a 10 mM BSO solution were added to the wells, resulting in a 1 mM final BSO concentration. Forty-eight hours later, three plates were examined under a phase-contrast microscope to verify that the cells in the 0% control (wells E1-H1) were clearly dead. The medium from all plates was discarded, and the remaining liquid was removed by gently tapping the plate inversed onto a paper towel.
(§4) 100 μl of PBS containing 1.2 μM Calcein AM were then added to each well. The plates were incubated for 50-70 minutes at room temperature. After that time the PBS was discarded, the plate gently tapped on a paper towel and fluorescence (excitation/emission wavelengths of 485 nm and 525 nm, respectively) was read on a Gemini fluorescence reader. Data was imported into Microsoft Excel (EXCEL is a registered trademark of Microsoft Corporation for a spreadsheet program) and used to calculate the EC50 concentration for each compound.
Compounds of the invention were screened as described in Example A, but substituting FRDA cells with Leber's Hereditary Optic Neuropathy (LHON) cells obtained from the Coriell Cell Repositories (Camden, N.J.; repository number GM03858). The compounds were tested for their ability to rescue human dermal fibroblasts from LHON patients from oxidative stress.

[2] = tested on: human dermal fibroblasts from Parkinson's Disease patients; test: Rescue of BSO-stressed fibroblasts from Parkinson's Disease patients (screen as Example A); conditions: Fibroblast, BSO-stressed Parkinson's Disease fibroblasts (AG20439), less than about 150 nM, read-out: EC50, protection against PD
Protocol: as §1, §2, §3, §4
Compounds of the invention were screened as described in Example A, but substituting FRDA cells with Parkinson's Disease (PD) cells obtained from the Coriell Cell Repositories (Camden, N.J.; repository number AG20439). The compounds were tested for their ability to rescue human dermal fibroblasts from Parkinson's Disease patients from oxidative stress.

[3] = tested on: human dermal fibroblasts from Huntington's patients; test: Rescue of BSO-stressed fibroblasts from Huntington's patients (screen as Example A); conditions: Fibroblast, BSO-stressed Huntington's fibroblasts (GM 04281), less than about 150 nM, read-out: EC50, protection against Huntington's
Protocol: as §1, §2, §3, §4
Compounds of the invention were tested using the screen as described in Example A, but substituting FRDA cells with Huntington's cells obtained from the Coriell Cell Repositories (Camden, N.J.; repository number GM 04281). The compounds were tested for their ability to rescue human dermal fibroblasts from Huntington's patients from oxidative stress.

[4] = tested on: Human dermal fibroblasts from Friedreich's Ataxia patients; test: Rescue of BSO-stressed FRDA fibroblasts (Calcein AM viability); conditions: BSO-stressed FRDA fibroblasts (GM04078), less than about 150 nM, read-out: EC50, protection against FRDA
Protocol: An initial screen was performed to identify compounds effective for the amelioration of redox disorders. Test samples, 4 reference compounds (Idebenone, decylubiquinone, Trolox and α-tocopherol acetate), and solvent controls were tested for their ability to rescue FRDA fibroblasts stressed by addition of L-buthionine-(S,R)-sulfoximine (BSO), as described in Jauslin et al., Hum. Mol. Genet. 11(24):3055 (2002), Jauslin et al., FASEB J. 17:1972-4 (2003), and International Patent Application WO 2004/003565. […] This specific BSO-mediated cell death can be prevented by administration of antioxidants or molecules involved in the antioxidant pathway, such as α-tocopherol, selenium, or small molecule glutathione peroxidase mimetics. However, antioxidants differ in their potency, i.e. the concentration at which they are able to rescue BSO-stressed FRDA fibroblasts.
MEM (a medium enriched in amino acids and vitamins, catalog no. 1-31F24-I) and Medium 199 (M199, catalog no. 1-21F22-I) with Earle's Balanced Salts, without phenol red, were purchased from Bioconcept. Fetal Calf Serum was obtained from PAA Laboratories. Basic fibroblast growth factor and epidermal growth factor were purchased from PeproTech. Penicillin-streptomycin-glutamine mix, L-buthionine (S,R)-sulfoximine, (+)-α-tocopherol acetate, decylubiquinone, and insulin from bovine pancreas were purchased from Sigma. Trolox (6-hydroxy-2,5,7,8-tetramethylchromane-2-carboxylic acid) was obtained from Fluka. Idebenone was obtained from Chemo Iberica. Calcein AM was purchased from Molecular Probes. Cell culture medium was made by combining 125 ml M199 EBS, 50 ml Fetal Calf Serum, 100 U/ml penicillin, 100 μg/ml streptomycin, 2 mM glutamine, 10 μg/ml insulin, 10 ng/ml EGF, and 10 ng/ml bFGF; MEM EBS was added to make the volume up to 500 ml. A 10 mM BSO solution was prepared by dissolving 444 mg BSO in 200 ml of medium with subsequent filter-sterilization. During the course of the experiments, this solution was stored at +4° C. The cells were obtained from the Coriell Cell Repositories (Camden, N.J.; repository number GM04078) and grown in 10 cm tissue culture plates. Every third day, they were split at a 1:3 ratio.
The test samples were supplied in 1.5 ml glass vials. The compounds were diluted with DMSO, ethanol or PBS to result in a 5 mM stock solution. Once dissolved, they were stored at −20° C. Reference antioxidants (Idebenone, decylubiquinone, α-tocopherol acetate and trolox) were dissolved in DMSO.
Test samples were screened according to the following protocol:
as §1, §2
Plates were kept overnight in the cell culture incubator. The next day, 10 μl of a 10 mM BSO solution were added to the wells, resulting in a 1 mM final BSO concentration. Forty-eight hours later, three plates were examined under a phase-contrast microscope to verify that the cells in the 0% control (wells E1-H1) were clearly dead. […]

Measured: pEC50

CC1=C(CCNC(N)=O)C(=O)C(c2ccc(Cl)cc2)=C(C)C1=O [1-(2-(5-(4-chlorophenyl)-2,4-dimethyl-3,6-dioxocyclohexa-1,4-dienyl)ethyl)urea]
> 6.82: [1] | [2] | [3] | [4]

CC1=C(C)C(=O)C(CCNC(=O)NCCN(C)C)=C(C)C1=O [1-(2-(dimethylamino)ethyl)-3-(2-(2,4,5-trimethyl-3,6-dioxocyclohexa-1,4-dienyl)ethyl)urea]
> 6.82: [1] | [2] | [3] | [4]

CC1=C(C)C(=O)C(CCNC(=O)NCCO)=C(C)C1=O [1-(2-hydroxyethyl)-3-(2-(2,4,5-trimethyl-3,6-dioxocyclohexa-1,4-dienyl)ethyl)urea]
> 6.82: [1] | [2] | [3] | [4]

CC1=C(C)C(=O)C(CCNC(=O)NCc2ccc(F)cc2)=C(C)C1=O [1-(4-Fluorobenzyl)-3-(2-(2,4,5-trimethyl-3,6-dioxocyclohexa-1,4-dienyl)ethyl)urea]
> 6.82: [1] | [2] | [3] | [4]

CC1=C(C)C(=O)C(CCNC(=O)NCc2ccc(Cl)cc2)=C(C)C1=O [1-(4-chlorobenzyl)-3-(2-(2,4,5-trimethyl-3,6-dioxocyclohexa-1,4-dienyl)ethyl)urea]
> 6.82: [1] | [2] | [3] | [4]

CC1=C(C)C(=O)C(CCNC(=O)NCc2cccnc2)=C(C)C1=O [1-(pyridin-3-ylmethyl)-3-(2-(2,4,5-trimethyl-3,6-dioxocyclohexa-1,4-dienyl)ethyl)urea]
> 6.82: [1] | [2] | [3] | [4]

CC1=C(C)C(=O)C(CCNC(=O)NCc2ccncc2)=C(C)C1=O [1-(pyridin-4-ylmethyl)-3-(2-(2,4,5-trimethyl-3,6-dioxocyclohexa-1,4-dienyl)ethyl)urea]
> 6.82: [1] | [2] | [3] | [4]

CC1=C(C)C(=O)C(CCNC(=O)c2ccc(C(F)(F)F)cc2)=C(C)C1=O [4-(Trifluoromethyl)-N-(2-(2,4,5-trimethyl-3,6-dioxocyclohexa-1,4-dienyl)ethyl)benzamide]
> 6.82: [1] | [2] | [4]

CC1=C(C)C(=O)C(CCNC(=O)c2ccc(Cl)cc2)=C(C)C1=O [4-chloro-N-(2-(2,4,5-trimethyl-3,6-dioxocyclohexa-1,4-dienyl)ethyl)benzamide]
> 6.82: [1] | [2] | [4]

CC1=C(C)C(=O)C(CCNC(=O)c2ccc(F)cc2)=C(C)C1=O [4-fluoro-N-(2-(2,4,5-trimethyl-3,6-dioxocyclohexa-1,4-dienyl)ethyl)benzamide]
> 6.82: [1] | [2] | [4]

CC1=C(C)C(=O)C(CCCC(=O)NC(C)(C)CO)=C(C)C1=O [N-(1-hydroxy-2-methylpropan-2-yl)-4-(2,4,5-trimethyl-3,6-dioxocyclohexa-1,4-dienyl)butanamide]
> 6.82: [2] | [4]

CC1=C(CCNS(=O)(=O)c2ccc(F)cc2)C(=O)C(c2ccc(Cl)cc2)=C(C)C1=O [N-(2-(5-(4-chlorophenyl)-2,4-dimethyl-3,6-dioxocyclohexa-1,4-dienyl)ethyl)-4-fluorobenzenesulfonamide]
> 6.82: [2] | [3] | [4]

CC1=C(C)C(=O)C(CCC(C)C(=O)NCCO)=C(C)C1=O (stereo not drawn) [N-(2-hydroxyethyl)-2-methyl-4-(2,4,5-trimethyl-3,6-dioxocyclohexa-1,4-dienyl)butanamide]
> 6.82: [1] | [3] | [4]

CC1=C(C)C(=O)C(CCCC(=O)NCCO)=C(C)C1=O [N-(2-hydroxyethyl)-4-(2,4,5-trimethyl-3,6-dioxocyclohexa-1,4-dienyl)butanamide]
> 6.82: [1] | [3] | [4]

CC1=C(C)C(=O)C(CCCC(=O)Nc2cc(Cl)cc(Cl)c2)=C(C)C1=O [N-(3,5-dichlorophenyl)-4-(2,4,5-trimethyl-3,6-dioxocyclohexa-1,4-dienyl)butanamide]
> 6.82: [1] | [3] | [4]

CC1=C(C)C(=O)C(CCC(C)C(=O)Nc2ccc(F)cc2)=C(C)C1=O (stereo not drawn) [N-(4-fluorophenyl)-2-methyl-4-(2,4,5-trimethyl-3,6-dioxocyclohexa-1,4-dienyl)butanamide]
> 6.82: [1] | [3] | [4]

CC1=C(C)C(=O)C(CCCC(=O)Nc2cccnc2)=C(C)C1=O [N-(pyridin-3-yl)-4-(2,4,5-trimethyl-3,6-dioxocyclohexa-1,4-dienyl)butanamide]
> 6.82: [1] | [3] | [4]

CC1=C(C)C(=O)C(CCCC(=O)NCc2cccnc2)=C(C)C1=O [N-(pyridin-3-ylmethyl)-4-(2,4,5-trimethyl-3,6-dioxocyclohexa-1,4-dienyl)butanamide]
> 6.82: [1] | [3] | [4]
